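In this assay, cells in 96-well plates receive the compound at five concentrations for 48 hours. Endpoints are linearly interpolated between the surrounding concentrations. GI50 = concentration required for 50% inhibition of growth. Definition used: TGI = concentration required for complete inhibition of growth.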
system: M19-MEL melanoma; test: NCI anticancer screen, dose series, 48 h

Question: Which TGI does the source give for `CC1(C)OC(=O)C(=Cc2ccc(O)cc2)C(=O)O1` here?
Answer: > 100 µM

Question: How did the TGI turn out when `COc1cccc(NC(=O)CC(=O)n2nc(C)c(N=Nc3ccccc3)c2C)c1` was run?
Answer: > 100 µM

Question: How did the TGI turn out when `O=C1C2=C(SCCS2)C(=O)c2ccccc21` was run?
Answer: 0.616 µM

system: KM20L2 colon; test: NCI anticancer screen, dose series, 48 h

Question: Which TGI does the source give for `C=CCc1cc(OC)c2c(c1)C(O)CC(c1ccc(OC)c(OC)c1)O2` (stereo not drawn) here?
Answer: > 100 µM

Question: How did the TGI turn out when `CC(C)=CCCc1c(C)ccc2c1C(=O)C(=O)C(C(C)C)=C2` was run?
Answer: > 22 µM

Question: How did the TGI turn out when `NS(=O)(=O)c1ccccc1C(=O)N/N=C(\c1nc2ccc([N+](=O)[O-])cc2[nH]c1=O)C(O)c1ccc([N+](=O)[O-])cc1` (stereo not drawn) was run?
Answer: > 100 µM

Question: `N#CC(C#N)=c1ccc(=C2NCC3CCCN23)cc1` (stereo not drawn) was tested. Which TGI did it give?
Answer: > 100 µM

Question: How did the TGI turn out when `CCOC(=O)COc1cccc2c1C(=O)CCO2` was run?
Answer: > 100 µM

Question: For `CSc1ccc(/C=C2\CN(C)C/C(=C\c3ccc(SC)cc3)C2=O)cc1`, which TGI is on record?
Answer: > 100 µM

Question: With `Cc1nc2c(nc1C)C(=O)c1ccccc1C2=O` as the compound, how does the TGI read?
Answer: 36.3 µM

Question: `Nc1ccc(C(=O)N/C(=C\c2ccc3c(c2)OCO3)c2nc3[nH]c(=S)[nH]c(=O)c3[nH]2)cc1` was tested. Which TGI did it give?
Answer: > 100 µM

Question: For `O=C(N/C(=C\c1cc(Cl)ccc1Cl)c1nc2[nH]c(=S)[nH]c(=O)c2[nH]1)c1ccccc1`, which TGI is on record?
Answer: > 100 µM

Question: Which TGI does the source give for `CN(CC(=O)O)S(=O)(=O)c1ccc2ccccc2c1` here?
Answer: > 100 µM

Question: For `CCN(CC)CC(C(=O)Nc1c(C)cccc1C)/C(C)=N\NC(=O)C[N+](C)(C)C` (stereo not drawn), which TGI is on record?
Answer: > 100 µM

Question: How did the TGI turn out when `CC(=O)OC(C)C(=O)C1c2cccc(O)c2C(=O)c2c(O)cc(C)cc21` (stereo not drawn) was run?
Answer: 2.72 µM

Question: `O=[S@@]1Nc2ccc(Br)cc2S1` was tested. Which TGI did it give?
Answer: > 100 µM

Question: For `CC(=O)C(CN(C(C)C)C(C)C)C(c1ccccc1)c1c(O)c2ccccc2oc1=O` (stereo not drawn), which TGI is on record?
Answer: > 100 µM

Question: How did the TGI turn out when `COc1ccc2c(c1)C1(C=N2)CCN(C(C)=O)CC1` was run?
Answer: > 100 µM

Question: Which TGI does the source give for `NC(CCc1nc(-c2ccc(Cl)cc2)cs1)C(=O)O` (stereo not drawn) here?
Answer: > 100 µM

Question: With `O=C1NC2(CCCCC2)C2CCCCC(O)C12` (stereo not drawn) as the compound, how does the TGI read?
Answer: > 100 µM

Question: With `COc1ccc(-n2/c(=N/C(=S)N(C)C)ss/c2=N\C(=S)N(C)C)cc1` as the compound, how does the TGI read?
Answer: > 100 µM

Question: For `O=C1c2ccccc2C(=O)c2sc(Nc3cccc(Cl)c3)nc21`, which TGI is on record?
Answer: 20.2 µM

Question: `CC(=O)N1[C@H](C(=O)O)CS[C@H]1c1ccncc1` was tested. Which TGI did it give?
Answer: > 100 µM

Question: How did the TGI turn out when `COc1ccc(NC(=O)c2cc(OC)cc(OC)c2)cc1` was run?
Answer: 32 µM

Question: With `CC1(C)OC(=O)C(=Cc2ccc(O)cc2)C(=O)O1` as the compound, how does the TGI read?
Answer: > 100 µM

Question: Which TGI does the source give for `O=C(O)CCSC(=O)Nc1cccc(F)c1` here?
Answer: > 100 µM

Question: `O=C1C2=C(SCCS2)C(=O)c2ccccc21` was tested. Which TGI did it give?
Answer: 3.52 µM

system: MDA-MB-435; test: NCI anticancer screen, dose series, 48 h

Question: Which TGI does the source give for `Cc1nc2c(nc1C)C(=O)c1ccccc1C2=O` here?
Answer: 0.365 µM

Question: With `O=C1c2ccccc2C(=O)c2sc(Nc3cccc(Cl)c3)nc21` as the compound, how does the GI50 read?
Answer: 0.258 µM

Question: And the TGI?
Answer: 0.711 µM

system: XF 498 CNS; test: NCI anticancer screen, dose series, 48 h

Question: `CC(C)=CCCc1c(C)ccc2c1C(=O)C(=O)C(C(C)C)=C2` was tested. Which TGI did it give?
Answer: 7.15 µM

Question: How did the TGI turn out when `NS(=O)(=O)c1ccccc1C(=O)N/N=C(\c1nc2ccc([N+](=O)[O-])cc2[nH]c1=O)C(O)c1ccc([N+](=O)[O-])cc1` (stereo not drawn) was run?
Answer: > 100 µM

Question: `CCOC(=O)COc1cccc2c1C(=O)CCO2` was tested. Which TGI did it give?
Answer: > 100 µM

Question: `CSc1ccc(/C=C2\CN(C)C/C(=C\c3ccc(SC)cc3)C2=O)cc1` was tested. Which TGI did it give?
Answer: 58 µM

Question: `Nc1ccc(C(=O)N/C(=C\c2ccc3c(c2)OCO3)c2nc3[nH]c(=S)[nH]c(=O)c3[nH]2)cc1` was tested. Which TGI did it give?
Answer: > 100 µM

Question: How did the TGI turn out when `O=C(N/C(=C\c1cc(Cl)ccc1Cl)c1nc2[nH]c(=S)[nH]c(=O)c2[nH]1)c1ccccc1` was run?
Answer: > 100 µM

Question: `CN(CC(=O)O)S(=O)(=O)c1ccc2ccccc2c1` was tested. Which TGI did it give?
Answer: > 100 µM

Question: Which TGI does the source give for `CCN(CC)CC(C(=O)Nc1c(C)cccc1C)/C(C)=N\NC(=O)C[N+](C)(C)C` (stereo not drawn) here?
Answer: > 100 µM

Question: With `CC1=C(C(=O)Nc2ccccc2C)C(c2ccco2)C(C(=O)Nc2ccccc2C)=C(C)N1C` as the compound, how does the TGI read?
Answer: > 100 µM

Question: For `CC(=O)OC(C)C(=O)C1c2cccc(O)c2C(=O)c2c(O)cc(C)cc21` (stereo not drawn), which TGI is on record?
Answer: 0.465 µM

Question: Which TGI does the source give for `O=[S@@]1Nc2ccc(Br)cc2S1` here?
Answer: > 100 µM

Question: For `O=C1c2ccccc2C(=O)c2sc(Nc3cccc(Cl)c3)nc21`, which TGI is on record?
Answer: 3.18 µM

Question: With `COc1ccc(NC(=O)c2cc(OC)cc(OC)c2)cc1` as the compound, how does the TGI read?
Answer: > 100 µM

Question: How did the TGI turn out when `CC1(C)OC(=O)C(=Cc2ccc(O)cc2)C(=O)O1` was run?
Answer: > 100 µM

Question: For `COc1cccc(NC(=O)CC(=O)n2nc(C)c(N=Nc3ccccc3)c2C)c1`, which TGI is on record?
Answer: > 100 µM

Question: `O=C1C2=C(SCCS2)C(=O)c2ccccc21` was tested. Which TGI did it give?
Answer: 3.01 µM

system: NCI/ADR-RES ovarian; test: NCI anticancer screen, dose series, 48 h

Question: With `Cc1nc2c(nc1C)C(=O)c1ccccc1C2=O` as the compound, how does the TGI read?
Answer: 17.1 µM

Question: `O=C1c2ccccc2C(=O)c2sc(Nc3cccc(Cl)c3)nc21` was tested. Which GI50 did it give?
Answer: 2.01 µM

Question: What about the TGI of the same compound?
Answer: 4.78 µM

system: DMS 273 small cell lung; test: NCI anticancer screen, dose series, 48 h

Question: Which TGI does the source give for `C=CCc1cc(OC)c2c(c1)C(O)CC(c1ccc(OC)c(OC)c1)O2` (stereo not drawn) here?
Answer: > 100 µM

Question: How did the TGI turn out when `CC(C)=CCCc1c(C)ccc2c1C(=O)C(=O)C(C(C)C)=C2` was run?
Answer: 7.47 µM

Question: With `N#CC(C#N)=c1ccc(=C2NCC3CCCN23)cc1` (stereo not drawn) as the compound, how does the TGI read?
Answer: > 100 µM

Question: Which TGI does the source give for `CCOC(=O)COc1cccc2c1C(=O)CCO2` here?
Answer: > 100 µM

Question: With `CSc1ccc(/C=C2\CN(C)C/C(=C\c3ccc(SC)cc3)C2=O)cc1` as the compound, how does the TGI read?
Answer: > 100 µM

Question: How did the TGI turn out when `Cc1nc2c(nc1C)C(=O)c1ccccc1C2=O` was run?
Answer: 15.3 µM

Question: Which TGI does the source give for `CN(CC(=O)O)S(=O)(=O)c1ccc2ccccc2c1` here?
Answer: > 100 µM

Question: Which TGI does the source give for `CCN(CC)CC(C(=O)Nc1c(C)cccc1C)/C(C)=N\NC(=O)C[N+](C)(C)C` (stereo not drawn) here?
Answer: > 100 µM

Question: How did the TGI turn out when `CC(=O)OC(C)C(=O)C1c2cccc(O)c2C(=O)c2c(O)cc(C)cc21` (stereo not drawn) was run?
Answer: 1.85 µM

Question: How did the TGI turn out when `O=[S@@]1Nc2ccc(Br)cc2S1` was run?
Answer: > 100 µM

Question: With `CC(=O)C(CN(C(C)C)C(C)C)C(c1ccccc1)c1c(O)c2ccccc2oc1=O` (stereo not drawn) as the compound, how does the TGI read?
Answer: > 100 µM

Question: How did the TGI turn out when `COc1ccc2c(c1)C1(C=N2)CCN(C(C)=O)CC1` was run?
Answer: > 100 µM

Question: `NC(CCc1nc(-c2ccc(Cl)cc2)cs1)C(=O)O` (stereo not drawn) was tested. Which TGI did it give?
Answer: > 100 µM

Question: With `O=C1NC2(CCCCC2)C2CCCCC(O)C12` (stereo not drawn) as the compound, how does the TGI read?
Answer: > 100 µM

Question: `COc1ccc(-n2/c(=N/C(=S)N(C)C)ss/c2=N\C(=S)N(C)C)cc1` was tested. Which TGI did it give?
Answer: > 100 µM

Question: Which TGI does the source give for `O=C1c2ccccc2C(=O)c2sc(Nc3cccc(Cl)c3)nc21` here?
Answer: 3.59 µM

Question: `O=C(O)C(Cc1ccccc1)N1C(=O)N/C(=C\c2ccc(F)cc2)C1=O` (stereo not drawn) was tested. Which TGI did it give?
Answer: > 100 µM

Question: For `COc1ccc(NC(=O)c2cc(OC)cc(OC)c2)cc1`, which TGI is on record?
Answer: > 100 µM

Question: For `CC1(C)OC(=O)C(=Cc2ccc(O)cc2)C(=O)O1`, which TGI is on record?
Answer: > 100 µM

Question: How did the TGI turn out when `COc1cccc(NC(=O)CC(=O)n2nc(C)c(N=Nc3ccccc3)c2C)c1` was run?
Answer: > 100 µM

Question: `O=C(O)CCSC(=O)Nc1cccc(F)c1` was tested. Which TGI did it give?
Answer: > 100 µM

Question: `O=C1C2=C(SCCS2)C(=O)c2ccccc21` was tested. Which TGI did it give?
Answer: 3.31 µM

system: DU-145 prostate; test: NCI anticancer screen, dose series, 48 h

Question: How did the TGI turn out when `NS(=O)(=O)c1ccccc1C(=O)N/N=C(\c1nc2ccc([N+](=O)[O-])cc2[nH]c1=O)C(O)c1ccc([N+](=O)[O-])cc1` (stereo not drawn) was run?
Answer: > 100 µM

Question: `Cc1nc2c(nc1C)C(=O)c1ccccc1C2=O` was tested. Which TGI did it give?
Answer: 2.72 µM
